# Target: T1, PYL2 A93F (Arabidopsis thaliana, UniProt O80992, A93F)
# T1 construct: PYL2 (residues 14-188), and HAB1 (residues 172-511) were prepared as recombinant proteins in E. coli; made in house; host or cells: E. coli (stated for PYL2 in general)
# Experiment: PP2C binding and phosphatase assays of mutant PYL2 A93F
# Assay type: biochemical
# Text: The closest distance between the pyridine ring of pyrabactin and the LPA gating residues is 4.8 Å-7.0 Å when the LPA loop assumes the ABA-bound closed conformation, but is 11-13 Å when the LPA gate is in open conformation. In contrast, the distance of the naphthalene double ring of pyrabactin or the cyclohexene ring of ABA to the three side chains of the LPA gate in the PYL1 structure is 3.4-4.6 Å, a range for strong Van der Waals interactions, thus helping to keep the LPA gate in the closed conformation. […] To validate this hypothesis, we changed the alanine in the LPA loop to a larger residue. […] As expected from structural modeling, replacement of the gate residue A93 with the bulky phenylalanine ring also abrogated ABA to promote PYL2 activation.
# Mutant proteins were expressed as H6GST-fusion proteins and purified by glutathione sepharose chromatography. Protein-protein interactions were determined by luminescence proximity AlphaScreen assay. Biotinylated PP2C proteins for the luminescence proximity assay were generated by in vivo biotinylation of avitag-PP2C fusion proteins. PP2C phosphatase activity was measured by phosphate release from a SnRK2.6 phosphoprotein.
# Site-directed mutagenesis was carried out using the QuickChange method (Stratagene). Mutations and all plasmid constructs were confirmed by sequencing.
# T1 sequence (O80992 14-188 A93F): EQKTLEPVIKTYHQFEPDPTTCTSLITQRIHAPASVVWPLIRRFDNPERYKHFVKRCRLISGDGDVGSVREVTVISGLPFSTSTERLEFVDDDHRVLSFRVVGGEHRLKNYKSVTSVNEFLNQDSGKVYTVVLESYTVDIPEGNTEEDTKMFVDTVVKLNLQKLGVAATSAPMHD
substance,measurement,value
(+)-Abscisic Acid,Activation of mutant PYL2 A93F receptor,abrogated
